Where no end group is shown, it is not given here.
Assays:
[1] = molecular target: T1, TgCEN1 (recombinant, lacking the first 21 residues) (Toxoplasma gondii, UniProt A0A125YHX7); test: ITC titration of TgSFI1 peptides into TgCEN1; format: binding; details: for TΔS: T 298 K
T1 construct: TgCEN1 (lacking the first 21 residues) and its N-terminal (N-TgCEN1, 22–94 aa) and C-terminal (C-TgCEN1, 95–169 aa) domains; made in house
Description: (§1) The recombinant TgCEN1 (lacking the first 21 residues) and its N-terminal (N-TgCEN1, 22–94 aa) and C-terminal (C-TgCEN1, 95–169 aa) domains were purified as previously described. The TgSFI1 peptides were synthesized by GenScript U.S.A. Inc. (Piscataway, NJ, USA). The concentration of each peptide was determined using their predicted molar extinction coefficient at 280 nm.
(§2) Isothermal titration calorimetry (ITC) experiments were performed on a MicroCal PEAQ-ITC instrument (Malvern Ltd., Malvern, UK) at 25 °C. Protein samples and peptides were solubilized in the same buffer containing 50 mM Tris–HCl, 150 mM KCl pH 7.5 and 5 mM CaCl2 or 5 mM EGTA. All the samples were filtered and degassed before use, and the pH was carefully determined to exclude any possible pH-related effect on ITC experiments.
(§3) A typical ITC experiment was performed by titrating 200 μL of a 30–50 μM protein solution with a 1 or 1.5 μL injection of 0.3–0.5 mM peptide (total injections 39 or 26, respectively) with an initial delay of 120 s and keeping a time gap of 120 s between injections. A reference injection of peptide into buffer without centrin was performed and subtracted from each experiment. The resulting curves were fitted to calculate apparent dissociation constants Kd, enthalpy changes (ΔH), and the apparent entropy change (ΔS) using the software MicroCal ITC Origin 7 Analysis Software (MicroCal, Malvern Ltd., Malvern, UK). All measurements were repeated in triplicate using at least two different protein preparations and the error was calculated as the mean standard error of the three measurements.

[2] = molecular target: T2, C-TgCEN1 (C-terminal domain, 95–169 aa) (Toxoplasma gondii, UniProt A0A125YHX7); test: ITC titration of TgSFI1 peptides into C-TgCEN1; format: binding; details: SEM; for Kd / n (stoichiometry of binding) / ΔH: 25 °C; for Kd / n (stoichiometry of binding): 50 mM Tris-HCl; for TΔS: T 298 K
T2 construct: C-terminal (C-TgCEN1, 95–169 aa); made in house
T2 sequence (A0A125YHX7 95-169): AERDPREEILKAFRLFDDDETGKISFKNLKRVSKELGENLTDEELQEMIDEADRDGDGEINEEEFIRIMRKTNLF
Description: as §1, §2, §3

[3] = molecular target: T3, N-TgCEN1 (N-terminal domain, 22–94 aa) (Toxoplasma gondii, UniProt A0A125YHX7); test: ITC titration of TgSFI1 peptides into N-TgCEN1; format: binding; details: SEM
T3 construct: N-terminal (N-TgCEN1, 22–94 aa); made in house
T3 sequence (A0A125YHX7 22-94): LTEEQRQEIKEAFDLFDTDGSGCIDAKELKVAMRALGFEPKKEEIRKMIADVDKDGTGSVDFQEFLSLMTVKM
Description: as §1, §2, §3

[4] = molecular target: TgSFI1 R16 peptide R16 (Toxoplasma gondii) (UniProt S8F258); test: ITC
Chain of TgSFI1 R16 peptide R16 (Toxoplasma gondii) (S8F258 whole entry): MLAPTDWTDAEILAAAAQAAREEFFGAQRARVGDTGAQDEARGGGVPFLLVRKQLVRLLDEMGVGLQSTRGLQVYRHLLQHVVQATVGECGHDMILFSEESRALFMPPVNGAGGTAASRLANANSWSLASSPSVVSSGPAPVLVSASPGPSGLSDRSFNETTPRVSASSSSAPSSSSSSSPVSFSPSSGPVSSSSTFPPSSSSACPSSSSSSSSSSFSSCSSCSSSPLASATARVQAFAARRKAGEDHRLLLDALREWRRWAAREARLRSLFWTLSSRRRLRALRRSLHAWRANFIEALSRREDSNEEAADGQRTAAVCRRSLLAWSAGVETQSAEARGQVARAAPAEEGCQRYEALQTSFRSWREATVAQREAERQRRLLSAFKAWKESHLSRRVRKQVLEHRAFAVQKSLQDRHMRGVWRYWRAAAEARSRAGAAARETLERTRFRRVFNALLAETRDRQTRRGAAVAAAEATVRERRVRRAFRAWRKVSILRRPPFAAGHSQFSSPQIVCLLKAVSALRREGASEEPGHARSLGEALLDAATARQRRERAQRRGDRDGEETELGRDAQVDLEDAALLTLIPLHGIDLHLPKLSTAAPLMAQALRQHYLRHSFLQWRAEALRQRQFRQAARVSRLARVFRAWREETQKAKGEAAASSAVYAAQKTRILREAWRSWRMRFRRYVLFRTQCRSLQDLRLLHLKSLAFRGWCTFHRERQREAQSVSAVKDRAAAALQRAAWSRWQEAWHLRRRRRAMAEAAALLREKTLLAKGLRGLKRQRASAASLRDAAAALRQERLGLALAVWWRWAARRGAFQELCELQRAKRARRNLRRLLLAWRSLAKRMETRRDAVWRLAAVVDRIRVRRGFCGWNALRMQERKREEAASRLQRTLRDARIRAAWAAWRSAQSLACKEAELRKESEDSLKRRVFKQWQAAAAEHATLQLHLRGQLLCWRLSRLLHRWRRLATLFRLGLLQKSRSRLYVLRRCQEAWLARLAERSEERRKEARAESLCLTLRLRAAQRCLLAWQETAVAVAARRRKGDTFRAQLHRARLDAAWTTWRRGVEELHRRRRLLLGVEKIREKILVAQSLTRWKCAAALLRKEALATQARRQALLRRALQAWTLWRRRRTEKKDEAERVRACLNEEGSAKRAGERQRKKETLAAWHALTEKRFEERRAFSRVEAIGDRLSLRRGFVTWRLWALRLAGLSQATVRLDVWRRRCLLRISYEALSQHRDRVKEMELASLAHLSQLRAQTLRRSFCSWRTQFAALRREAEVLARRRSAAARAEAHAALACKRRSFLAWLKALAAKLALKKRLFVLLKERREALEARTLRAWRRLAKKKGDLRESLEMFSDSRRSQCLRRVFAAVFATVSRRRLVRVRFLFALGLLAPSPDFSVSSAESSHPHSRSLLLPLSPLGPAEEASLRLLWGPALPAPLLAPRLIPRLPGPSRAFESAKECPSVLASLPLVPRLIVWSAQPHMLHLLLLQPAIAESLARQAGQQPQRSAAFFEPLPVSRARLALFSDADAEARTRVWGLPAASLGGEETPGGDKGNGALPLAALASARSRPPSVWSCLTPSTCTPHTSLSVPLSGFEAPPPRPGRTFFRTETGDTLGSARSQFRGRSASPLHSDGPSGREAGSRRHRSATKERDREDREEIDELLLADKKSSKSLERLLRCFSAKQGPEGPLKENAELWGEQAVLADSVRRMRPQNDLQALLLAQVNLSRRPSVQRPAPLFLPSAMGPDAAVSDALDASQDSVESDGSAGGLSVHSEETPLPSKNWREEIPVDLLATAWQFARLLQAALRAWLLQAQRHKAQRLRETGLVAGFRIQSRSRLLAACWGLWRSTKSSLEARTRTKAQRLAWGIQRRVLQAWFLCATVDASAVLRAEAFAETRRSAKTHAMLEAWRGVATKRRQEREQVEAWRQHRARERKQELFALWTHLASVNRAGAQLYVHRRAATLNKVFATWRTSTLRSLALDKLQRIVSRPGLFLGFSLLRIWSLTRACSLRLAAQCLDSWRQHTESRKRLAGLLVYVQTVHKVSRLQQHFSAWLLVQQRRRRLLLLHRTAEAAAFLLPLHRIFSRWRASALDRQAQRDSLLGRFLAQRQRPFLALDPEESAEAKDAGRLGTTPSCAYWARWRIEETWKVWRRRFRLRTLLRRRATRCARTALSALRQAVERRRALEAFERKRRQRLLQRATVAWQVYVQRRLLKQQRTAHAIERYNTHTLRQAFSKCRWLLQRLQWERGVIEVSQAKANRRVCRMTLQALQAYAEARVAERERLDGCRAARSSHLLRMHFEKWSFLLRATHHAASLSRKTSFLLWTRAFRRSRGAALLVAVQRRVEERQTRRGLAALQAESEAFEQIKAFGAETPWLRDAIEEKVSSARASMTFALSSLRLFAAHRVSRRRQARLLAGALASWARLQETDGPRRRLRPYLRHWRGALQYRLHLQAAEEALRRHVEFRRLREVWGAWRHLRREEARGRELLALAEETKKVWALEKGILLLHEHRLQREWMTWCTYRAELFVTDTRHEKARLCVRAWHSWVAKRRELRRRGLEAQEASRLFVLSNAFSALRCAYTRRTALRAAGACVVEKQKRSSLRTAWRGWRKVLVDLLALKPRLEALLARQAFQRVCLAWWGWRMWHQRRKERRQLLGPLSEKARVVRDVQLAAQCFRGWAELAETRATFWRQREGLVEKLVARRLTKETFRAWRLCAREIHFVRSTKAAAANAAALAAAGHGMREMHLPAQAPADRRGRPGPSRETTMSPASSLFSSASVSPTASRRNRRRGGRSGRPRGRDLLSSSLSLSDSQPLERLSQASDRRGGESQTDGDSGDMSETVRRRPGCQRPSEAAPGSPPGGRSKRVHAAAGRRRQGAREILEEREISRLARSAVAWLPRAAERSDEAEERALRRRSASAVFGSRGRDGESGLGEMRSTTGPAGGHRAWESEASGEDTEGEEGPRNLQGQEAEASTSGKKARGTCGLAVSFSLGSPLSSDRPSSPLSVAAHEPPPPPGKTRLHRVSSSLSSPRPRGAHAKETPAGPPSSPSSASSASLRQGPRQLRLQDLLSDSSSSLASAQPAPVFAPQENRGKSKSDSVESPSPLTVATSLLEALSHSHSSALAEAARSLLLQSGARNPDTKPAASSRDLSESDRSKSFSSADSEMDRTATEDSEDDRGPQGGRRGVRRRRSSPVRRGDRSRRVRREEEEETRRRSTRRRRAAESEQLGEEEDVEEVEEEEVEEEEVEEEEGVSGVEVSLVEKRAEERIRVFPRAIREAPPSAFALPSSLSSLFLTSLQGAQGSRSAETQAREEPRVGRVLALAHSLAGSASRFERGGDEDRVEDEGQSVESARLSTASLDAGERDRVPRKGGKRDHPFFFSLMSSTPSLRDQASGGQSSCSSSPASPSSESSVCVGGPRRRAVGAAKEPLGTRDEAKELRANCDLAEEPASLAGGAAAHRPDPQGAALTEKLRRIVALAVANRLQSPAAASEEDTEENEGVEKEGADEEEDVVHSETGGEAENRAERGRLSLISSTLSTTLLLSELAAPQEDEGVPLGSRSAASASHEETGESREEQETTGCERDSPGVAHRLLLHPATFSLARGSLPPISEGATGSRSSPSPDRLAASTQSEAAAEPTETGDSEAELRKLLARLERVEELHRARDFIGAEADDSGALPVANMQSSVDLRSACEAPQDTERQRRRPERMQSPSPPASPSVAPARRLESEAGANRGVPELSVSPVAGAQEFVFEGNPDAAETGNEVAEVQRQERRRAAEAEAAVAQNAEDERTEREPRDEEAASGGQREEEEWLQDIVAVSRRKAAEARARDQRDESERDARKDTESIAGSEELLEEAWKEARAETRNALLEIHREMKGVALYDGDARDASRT

[5] = 25 °C, 50 mM Tris-HCl, 150 mM KCl pH 7.5, 5 mM CaCl2, single binding site, mean ± SE of triplicate, SEM
[6] = Ca2+-bound TgCEN1, single exothermic event, order of magnitude in text
[7] = 150 mM KCl pH 7.5, 5 mM CaCl2, mean ± SE of triplicate
[8] = 25 °C, 50 mM Tris-HCl, 150 mM KCl pH 7.5, 5 mM EGTA, mean ± SE of triplicate, dash = no binding observed, SEM
[9] = 150 mM KCl pH 7.5, 5 mM EGTA, mean ± SE of triplicate, dash = no binding observed
[10] = 25 °C, 50 mM Tris-HCl, 150 mM KCl pH 7.5, 5 mM CaCl2, first site (n1) of two-step binding, mean ± SE of triplicate, SEM
[11] = 25 °C, 50 mM Tris-HCl, 150 mM KCl pH 7.5, 5 mM CaCl2, second site (n2) of two-step binding, mean ± SE of triplicate, SEM
[12] = pH 7.5, 5 mM CaCl2, mean ± SE of triplicate
[13] = pH 7.5, 5 mM EGTA, mean ± SE of triplicate

T1 sequence (A0A125YHX7 22-169): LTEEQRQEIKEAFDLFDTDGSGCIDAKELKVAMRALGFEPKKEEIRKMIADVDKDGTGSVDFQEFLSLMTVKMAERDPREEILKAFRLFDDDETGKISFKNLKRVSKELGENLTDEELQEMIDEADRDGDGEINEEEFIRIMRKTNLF
Chain of TgCEN1 (A0A125YHX7 whole entry): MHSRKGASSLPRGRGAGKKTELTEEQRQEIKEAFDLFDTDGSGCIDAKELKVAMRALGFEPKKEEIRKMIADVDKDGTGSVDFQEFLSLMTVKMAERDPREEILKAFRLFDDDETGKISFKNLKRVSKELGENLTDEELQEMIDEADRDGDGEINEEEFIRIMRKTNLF

With AEAAAFLLPLHRIFSRWR [R24] the Kd [1, 5] was 3400 ± 600 nM, the Kd [1, 6] was about 1000 nM and the Kd [2, 7] was 2600 ± 300 nM.

With AEATVRERRVRRAFRAWR [R5] the Kd [1, 5] was 500 ± 100 nM, the Kd [1, 8] was 36900 ± 6600 nM and the Kd [2, 7] was 900 ± 100 nM. For the same substance, the Kd [2, 9] was 47800 ± 4900 nM.

LATQARRQALLRRALQAWTL [R16] showed a Kd [1, 10] of 9 ± 1 nM, a Kd [1, 11] of 500 ± 100 nM and a Kd [1, 8] of 3400 ± 300 nM. For the same substance, the Kd ([3]; 25 °C, 50 mM Tris-HCl, 150 mM KCl pH 7.5, 5 mM CaCl2, mean ± SE of triplicate, dash = no binding observed) was 400 ± 100 nM, the Kd [2, 7] was 6 ± 1 nM and the Kd [2, 9] was 9100 ± 800 nM.

In the case of LQRAKRARRNLRRLLLAWRS [R10], the “n (stoichiometry of binding), n1” value [1, 10] is reported as “n1 = 0.7 ± 0.1”, the “n (stoichiometry of binding), n2” value [1, 11] is reported as “n2 = 0.9 ± 0.1” and the “n (stoichiometry of binding)” value ([1]; 25 °C, 50 mM Tris-HCl, 150 mM KCl pH 7.5, 5 mM EGTA, mean ± SE of triplicate, SEM) is reported as 0.8 ± 0.1. The ΔH ([1]; 25 °C, pH 7.5, 5 mM CaCl2, first site (n1), mean ± SE of triplicate, SEM) was -19.1 ± 0.4 kcal/mol, the ΔH ([1]; 25 °C, pH 7.5, 5 mM CaCl2, second site (n2), mean ± SE of triplicate, SEM) was -12.1 ± 0.3 kcal/mol and the ΔH ([1]; 25 °C, pH 7.5, 5 mM EGTA, mean ± SE of triplicate, SEM) was -24.7 ± 0.4 kcal/mol. The TΔS ([1]; pH 7.5, 5 mM CaCl2, first site (n1), mean ± SE of triplicate, SEM) was -6.3 ± 0.4 kcal/mol, the TΔS ([1]; pH 7.5, 5 mM CaCl2, second site (n2), mean ± SE of triplicate, SEM) was -4.4 ± 0.3 kcal/mol and the TΔS ([1]; pH 7.5, 5 mM EGTA, mean ± SE of triplicate, SEM) was -16.4 ± 0.4 kcal/mol. The “n (stoichiometry of binding)” value ([3]; 25 °C, 50 mM Tris-HCl, 150 mM KCl pH 7.5, 5 mM CaCl2, mean ± SE of triplicate) was 0.7 ± 0.1, the ΔH ([3]; 25 °C, pH 7.5, 5 mM CaCl2, mean ± SE of triplicate) was -12.6 ± 0.9 kcal/mol and the TΔS ([3]; T 298 K, pH 7.5, 5 mM CaCl2, mean ± SE of triplicate) was -4.4 ± 1.0 kcal/mol. The “n (stoichiometry of binding)” value [2, 7] was 0.7 ± 0.1, the “n (stoichiometry of binding)” value ([2]; 150 mM KCl pH 7.5, 5 mM EGTA, mean ± SE of triplicate) was 0.7 ± 0.1 and the ΔH [2, 12] was -15.8 ± 0.1 kcal/mol. For the same substance, the ΔH [2, 13] was -19.3 ± 0.1 kcal/mol, the TΔS [2, 12] was -5.5 ± 0.5 kcal/mol and the TΔS [2, 13] was -11.5 ± 0.7 kcal/mol.

Work on LQRTLRDARIRAAWAAWR [R12] yielded a Kd [1, 5] of 500 ± 100 nM, a Kd [1, 8] of 29800 ± 3400 nM and a Kd [2, 7] of 400 ± 100 nM. For the same substance, the Kd [2, 9] was 69900 ± 7000 nM.

For RVEAIGDRLSLRRGFVTWRL [R17], the Kd [1, 5] was 800 ± 200 nM and the Kd [2, 7] was 2700 ± 100 nM.

TgCEN1 (from UniProt A0A125YHX7) was tested, and the Kd [4] was 9 nM.

Work on VVEKQKRSSLRTAWRGWR [R31] yielded a Kd [1, 5] of 2900 ± 100 nM, a Kd [1, 6] of about 1000 nM and a Kd [2, 7] of 1900 ± 100 nM.
